Measured values taken from patent US9873696B2, “Neprilysin inhibitors” (THERAVANCE BIOPHARMA R&D IP, LLC, priority 2010, dated 2018).

target: T1, human NEP (Homo sapiens, UniProt P08473); experiment: In vitro enzyme inhibition assay at human NEP (Assay 1); format: biochemical; conditions: recombinant enzyme, fluorogenic peptide substrate, 37° C.
T1 construct: purchased R&D Systems, Minneapolis, Minn; 1182-ZN
Description: In Vitro Assays for the Quantitation of Inhibitor Potencies (IC50) at Human and Rat NEP, and Human ACE
The inhibitory activities of compounds at human and rat neprilysin (EC 3.4.24.11; NEP) and human angiotensin converting enzyme (ACE) were determined using in vitro assays as described below.
Recombinant human NEP and recombinant human ACE were obtained commercially (R&D Systems, Minneapolis, Minn., catalog numbers 1182-ZN and 929-ZN, respectively). The fluorogenic peptide substrate Mca-D-Arg-Arg-Leu-Dap-(Dnp)-OH (Medeiros et al. (1997) Braz. J. Med. Biol. Res. 30:1157-62; Anaspec, San Jose, Calif.) and Abz-Phe-Arg-Lys(Dnp)-Pro-OH (Araujo et al. (2000) Biochemistry 39:8519-8525; Bachem, Torrance, Calif.) were used in the NEP and ACE assays respectively.
The assays were performed in 384-well white opaque plates at 37° C. using the fluorogenic peptide substrates at a concentration of 10 μM in Assay Buffer (NEP: 50 mM HEPES, pH 7.5, 100 mM NaCl, 0.01% polyethylene glycol sorbitan monolaurate (Tween-20), 10 μM ZnSO4; ACE: 50 mM HEPES, pH 7.5, 100 mM NaCl, 0.01% Tween-20, 1 μM ZnSO4).
Test compounds were assayed over the range of concentrations from […] to 20 μM. Test compounds were added to the enzymes and incubated for 30 minute at 37° C. prior to initiating the reaction by the addition of substrate. Reactions were terminated after 20 minutes of incubation at 37° C. by the addition of glacial acetic acid to a final concentration of 3.6% (v/v).
Plates were read on a fluorometer with excitation and emission wavelengths set to 320 nm and 405 nm, respectively. Inhibition constants were obtained by nonlinear regression of the data using the equation (GraphPad Software, Inc., San Diego, Calif.): v=v0/[1+(I/K′)] where v is the reaction rate, v0 is the uninhibited reaction rate, I is the inhibitor concentration and K′ is the apparent inhibition constant.
Compounds of the invention were tested in this assay and found to have pKi values at human NEP as follows.

T1 sequence (P08473 whole entry): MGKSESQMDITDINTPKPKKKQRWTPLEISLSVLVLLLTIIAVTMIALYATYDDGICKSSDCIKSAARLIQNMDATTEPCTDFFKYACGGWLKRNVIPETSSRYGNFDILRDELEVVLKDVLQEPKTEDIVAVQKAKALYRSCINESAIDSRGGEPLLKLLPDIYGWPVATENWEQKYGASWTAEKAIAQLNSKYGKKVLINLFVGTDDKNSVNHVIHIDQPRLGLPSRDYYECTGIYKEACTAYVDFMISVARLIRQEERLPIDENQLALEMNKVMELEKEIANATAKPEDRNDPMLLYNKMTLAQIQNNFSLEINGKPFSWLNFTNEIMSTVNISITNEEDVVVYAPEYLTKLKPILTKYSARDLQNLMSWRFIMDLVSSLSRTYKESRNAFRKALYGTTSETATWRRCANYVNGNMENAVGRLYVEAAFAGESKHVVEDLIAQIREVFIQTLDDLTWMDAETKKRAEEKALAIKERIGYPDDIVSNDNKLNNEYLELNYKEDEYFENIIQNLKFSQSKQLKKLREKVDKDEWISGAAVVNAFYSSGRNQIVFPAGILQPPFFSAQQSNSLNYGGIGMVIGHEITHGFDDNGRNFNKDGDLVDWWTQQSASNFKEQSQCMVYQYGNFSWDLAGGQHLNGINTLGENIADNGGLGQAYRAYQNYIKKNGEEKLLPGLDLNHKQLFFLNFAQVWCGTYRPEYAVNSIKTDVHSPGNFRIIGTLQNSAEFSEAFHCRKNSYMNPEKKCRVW

First: O=C(O)c1cc(C(=O)NN(Cc2ccc(-c3ccccc3)cc2)C[C@@H](O)C(=O)O)[nH]n1 [Example 1, 5-[N′-Biphenyl-4-ylmethyl-N′-((R)-2-carboxy-2-hydroxyethyl)hydrazinocarbonl]-1H-pyrazole-3-carboxylic Acid]
Second: O=C(O)c1cc(C(=O)NN(Cc2ccc(-c3ccccc3)cc2)C[C@H](O)C(=O)O)[nH]n1 [Example 2-1, 5-[N′-Biphenyl-4-ylmethyl-N′-((S)-2-carboxy-2-hydroxyethyl)-hydrazinocarbonyl]-1H-pyrazole-3-carboxylic acid]
The Ki of the first is lower: no more than 0.001 µM for the first, 0.00126 to 0.01 µM for the second. The first binds more tightly here.

O=C(NCCO)c1cc(C(=O)NN(Cc2ccc(-c3ccccc3)cc2)C[C@@H](O)C(=O)O)[nH]n1 [Example 2-2, (R)-3-{N-Biphenyl-4-ylmethyl-N′-[5-(2-hydroxyethylcarbamoyl)-2H-pyrazole-3-carbonyl]hydrazino}-2-hydroxypropionic acid] and NS(=O)(=O)CCNC(=O)c1cc(C(=O)NN(Cc2ccc(-c3ccccc3)cc2)C[C@@H](O)C(=O)O)[nH]n1 [Example 2-3, (R)-3-{N-Biphenyl-4-ylmethyl-N′-[5-(2-sulfamoylethylcarbamoyl)-2H-pyrazole-3-carbonyl]hydrazino}-2-hydroxypropionic acid] fall in the same range of Ki: 0.00126 to 0.01 µM for the first, 0.00126 to 0.01 µM for the second.

Compared with O=C(NC1CC1)c1cc(C(=O)NN(Cc2ccc(-c3ccccc3)cc2)C[C@@H](O)C(=O)O)[nH]n1 [Example 2-4, (R)-3-[N-Biphenyl-4-ylmethyl-N′-(5-cyclopropylcarbamoyl-2H-pyrazole-3-carbonyl)-hydrazino]-2-hydroxypropionic acid], O=C(NN(Cc1ccc(-c2ccccc2)cc1)C[C@@H](O)C(=O)O)c1cc(C(=O)N2CCC2)n[nH]1 [Example 2-8, (R)-3-{N′-[5-(Azetidine-1-carbonyl)-2H-pyrazole-3-carbonyl]-N-biphenyl-4-ylmethylhydrazino}-2-hydroxypropionic acid] is lower in Ki: 0.0126 to 0.1 µM for the first, 0.00126 to 0.01 µM for the second. The second binds more tightly here.

Compared with COCCN(C)C(=O)c1cc(C(=O)NN(Cc2ccc(-c3ccccc3)cc2)C[C@@H](O)C(=O)O)[nH]n1 [Example 2-5, (R)-3-(N-Biphenyl-4-ylmethyl-N′-{5-[(2-methoxyethyl)methylcarbamoyl]-2H-pyrazole-3-carbonyl}hydrazino)-2-hydroxypropionic acid], CN(C)C(=O)c1cc(C(=O)NN(Cc2ccc(-c3ccccc3)cc2)C[C@@H](O)C(=O)O)[nH]n1 [Example 2-6, (R)-3-[N-Biphenyl-4-ylmethyl-N′-(5-dimethylcarbamoyl-2H-pyrazole-3-carbonyl)-hydrazino]-2-hydroxypropionic acid] is lower in Ki: 0.0126 to 0.1 µM for the first, 0.00126 to 0.01 µM for the second.

First: CC(C)CN(C)C(=O)c1cc(C(=O)NN(Cc2ccc(-c3ccccc3)cc2)C[C@@H](O)C(=O)O)[nH]n1 [Example 2-7, (R)-3-{N-Biphenyl-4-ylmethyl-N′-[5-(isobutylmethylcarbamoyl)-2H-pyrazole-3-carbonyl]hydrazino}-2-hydroxypropionic acid]
Second: O=C(NN(Cc1ccc(-c2ccccc2)cc1)C[C@@H](O)C(=O)O)c1cc(C(=O)N2CCCC2)n[nH]1 [Example 2-9, (R)-3-{N-Biphenyl-4-ylmethyl-N′-[5-(pyrrolidine-1-carbonyl)-2H-pyrazole-3-carbonyl]hydrazino}-2-hydroxypropionic acid]
The Ki of the first is higher: 0.0126 to 0.1 µM for the first, 0.00126 to 0.01 µM for the second.

O=C(NN(Cc1ccc(-c2ccccc2)cc1)C[C@@H](O)C(=O)O)c1cc(C(=O)N2CCC(O)C2)n[nH]1 (stereo partly drawn) [Example 2-10, (R)-3-{N-Biphenyl-4-ylmethyl-N′-[5-(3-hydroxy-pyrrolidine-1-carbonyl)-2H-pyrazole-3-carbonyl]hydrazino}-2-hydroxypropionic acid] and O=C(NN(Cc1ccc(-c2ccccc2)cc1)C[C@@H](O)C(=O)O)c1cc(C(=O)N2CC[C@@H](O)C2)n[nH]1 [Example 2-11, (R)-3-{N-Biphenyl-4-ylmethyl-N′-[5-((R)-3-hydroxy-pyrrolidine-1-carbonyl)-2H-pyrazole-3-carbonyl]hydrazino}-2-hydroxypropionic acid] fall in the same range of Ki: 0.00126 to 0.01 µM for the first, 0.00126 to 0.01 µM for the second.

First: O=C(NN(Cc1ccc(-c2ccccc2)cc1)C[C@@H](O)C(=O)O)c1cc(C(=O)N2CC[C@H](O)C2)n[nH]1 [Example 2-12, (R)-3-{N-Biphenyl-4-ylmethyl-N′-[5-((S)-3-hydroxy-pyrrolidine-1-carbonyl)-2H-pyrazole-3-carbonyl]hydrazino}-2-hydroxypropionic acid]
Second: O=C(NN(Cc1ccc(-c2ccccc2)cc1)C[C@@H](O)C(=O)O)c1cc(C(=O)N2CCCCC2)n[nH]1 [Example 2-14, (R)-3-{N-Biphenyl-4-ylmethyl-N′-[5-(piperidine-1-carbonyl)-2H-pyrazole-3-carbonyl]hydrazino}-2-hydroxypropionic acid]
The Ki of the first is lower: 0.00126 to 0.01 µM for the first, 0.0126 to 0.1 µM for the second.

O=C(NN(Cc1ccc(-c2ccccc2)cc1)C[C@@H](O)C(=O)O)c1cc(C(=O)N2CC=CC2)n[nH]1 [Example 2-13, (R)-3-{N-Biphenyl-4-ylmethyl-N′-[5-(2,5-dihydro-pyrrole-1-carbonyl)-2H-pyrazole-3-carbonyl]hydrazino}-2-hydroxypropionic acid] and O=C(NN(Cc1ccc(-c2ccccc2)cc1)C[C@@H](O)C(=O)O)c1cc(C(=O)N2CCOCC2)n[nH]1 [Example 2-15, (R)-3-{N-Biphenyl-4-ylmethyl-N′-[5-(morpholine-4-carbonyl)-2H-pyrazole-3-carbonyl]hydrazino}-2-hydroxypropionic acid] fall in the same range of Ki: 0.00126 to 0.01 µM for the first, 0.00126 to 0.01 µM for the second.

O=C(NN(Cc1ccc(-c2ccccc2)cc1)C[C@@H](O)C(=O)O)c1cc(-c2ccccc2)n[nH]1 [Example 2-16, (R)-3-[N-Biphenyl-4-ylmethyl-N′-(5-phenyl-2H-pyrazole-3-carbonyl)-hydrazino]-2-hydroxypropionic acid] and O=C(NN(Cc1ccc(-c2ccccc2)cc1)C[C@@H](O)C(=O)O)c1cnn[nH]1 [Example 2-21, (R)-3-[N-Biphenyl-4-ylmethyl-N′-(3H-[1,2,3]triazole-4-carbonyl)hydrazino]-2-hydroxypropionic acid] fall in the same range of Ki: 0.0126 to 0.1 µM for the first, 0.0126 to 0.1 µM for the second.

First: O=C(NN(Cc1ccc(-c2ccccc2)cc1)C[C@@H](O)C(=O)O)c1cc(C(=O)O)n(Cc2c(F)cc(Cl)cc2F)n1 [Example 2-17, 5-[N′-Biphenyl-4-ylmethyl-N′-((R)-2-carboxy-2-hydroxyethyl)-hydrazinocarbonyl]-2-(4-chloro-2,6-difluorobenzyl)-2H-pyrazole-3-carboxylic acid]
Second: COc1c(F)c(F)c(Cn2nc(C(=O)NN(Cc3ccc(-c4ccccc4)cc3)C[C@@H](O)C(=O)O)cc2C(=O)O)c(F)c1F [Example 2-18, 5-[N′-Biphenyl-4-ylmethyl-N′-((R)-2-carboxy-2-hydroxyethyl)-hydrazinocarbonyl]-2-(2,3,5,6-tetrafluoro-4-methoxybenzyl)-2H-pyrazole-3-carboxylic acid]
The Ki of the first is higher: 0.0126 to 0.1 µM for the first, 0.00126 to 0.01 µM for the second.

Compared with O=C(NN(Cc1ccc(-c2ccccc2)cc1)C[C@@H](O)C(=O)O)c1cc(O)no1 [Example 2-19, (R)-3-[N-Biphenyl-4-ylmethyl-N′-(3-hydroxyisoxazole-5-carbonyl)-hydrazino]-2-hydroxypropionic acid], O=C(NN(Cc1ccc(-c2cccc(Cl)c2)cc1)C[C@@H](O)C(=O)O)c1cc(O)no1 [Example 3B, (R)-3-[N-(3′-Chlorobiphenyl-4-ylmethyl)-N′-(3-hydroxyisoxazole-5-carbonyl)-hydrazino]-2-hydroxypropionic Acid] is lower in Ki: 0.00126 to 0.01 µM for the first, no more than 0.001 µM for the second. The second binds more tightly here.

O=C(NN(Cc1ccc(-c2ccccc2)cc1)C[C@H](O)C(=O)O)c1nnc[nH]1 [Example 2-20, (S)-3-[N-Biphenyl-4-ylmethyl-N′-(4H-[1,2,4]triazole-3-carbonyl)hydrazino]-2-hydroxypropionic acid] and O=C(NN(Cc1ccc(-c2ccccc2)cc1)C[C@H](O)C(=O)O)c1cnc2[nH]nnc2c1 [Example 2-22, (S)-3-[N-Biphenyl-4-ylmethyl-N′-(3H-[1,2,3]triazolo[4,5-b]pyridine-6-carbonyl)hydrazino]-2-hydroxypropionic acid] fall in the same range of Ki: 0.126 to 1 µM for the first, 0.126 to 1 µM for the second.

O=C(NN(Cc1ccc(-c2ccccc2)cc1)C[C@@H](O)C(=O)O)c1cc(F)c2[nH]nnc2c1 [Example 2-23, (R)-3-[N-Biphenyl-4-ylmethyl-N′-(7-fluoro-1H-benzotriazole-5-carbonyl)-hydrazino]-2-hydroxypropionic acid] and O=C(NN(Cc1ccc(-c2ccccc2)cc1)C[C@H](O)C(=O)O)c1cc(F)c2[nH]nnc2c1 [Example 2-24, (S)-3-[N-Biphenyl-4-ylmethyl-N′-(7-fluoro-1H-benzotriazole-5-carbonyl)-hydrazino]-2-hydroxypropionic acid] fall in the same range of Ki: 0.126 to 1 µM for the first, 0.126 to 1 µM for the second.

O=C(NN(Cc1ccc(-c2ccccc2)cc1)C[C@H](O)C(=O)O)c1cc(Cl)c2[nH]nnc2c1 [Example 2-25, (S)-3-[N-Biphenyl-4-ylmethyl-N′-(7-chloro-1H-benzotriazole-5-carbonyl)-hydrazino]-2-hydroxypropionic acid] gave a Ki of 0.126 to 1 µM.
